Assays:
Assay type in all cases: physicochemical
[1] = Stability study on compositions 1′ and 2: assay of compound A by HPLC; details: under all the temperature conditions (4° C., RT, 40° C.); dissolved in the aqueous phase or in the oily liquid globules
Protocol: Composition 1′ of Example 2 and composition 2 of Example 3 were placed under various stability conditions: 4° C., room temperature and 40° C., for 3 months.
Compound A was assayed by HPLC. The results are expressed in mg/g.

[2] = Solubility of compound A in various oily and aqueous solvents
Excerpt: (§1) The object of this preformulation study is to identify lipophilic and hydrophilic solvents in which compound A is soluble, and in which it is chemically stable.

[3] = Stability of compound A in solvents (HPLC-UV); details: RT / 40° C.
Protocol: as §1
The stability of the active agent was evaluated by liquid chromatography coupled to a UV detector (HPLC-UV).

[4] = in Caprylic/capric acid triglycerides (Miglyol 812N)
[5] = in PPG-15 stearyl ether (Arlamol E PSE15)
[6] = in Propylene glycol / absolute ethanol (20/80)

Chemical stability of compound A in the compositions [1]: 3 months | Maximum solubility (% m/m) ([2]; in Absolute ethanol): 0.92 % m/m | Maximum solubility (% m/m) [2, 4]: 0.019 % m/m | Maximum solubility (% m/m) [2, 5]: 0.292 % m/m | Maximum solubility (% m/m) ([2]; in Phenoxyethanol): 1.957 % m/m | Maximum solubility (% m/m) ([2]; in Propylene glycol): 0.11 % m/m | Maximum solubility (% m/m) [2, 6]: 1.08 % m/m | Stability ([3]; in Absolute ethanol): 3 months RT / 40 °C | Stability [3, 4]: 6 months RT / 40 °C | Stability [3, 5]: 6 months RT / 40 °C | Stability ([3]; in Phenoxyethanol): 6 months RT / 40 °C | Stability [3, 6]: 6 months RT / 40 °C | Stability ([3]; in Propylene glycol): 3 months RT / 40 °C
Structure (SMILES): CC(C)(C)c1cc(-c2cc(-c3ccc(C(=O)O)cc3)ccc2OCCO)ccc1N1CCCC1 [Compound A, 3″-tert-Butyl-4′-(2-hydroxyethoxy)-4″-pyrrolidin-1-yl-[1,1′;3′,1″]-terphenyl-4-carboxylic acid]

Reference: patent publication US20150147403A1, “DERMATOLOGICAL COMPOSITION COMPRISING OLEOSOMES AND RETINOIDS, PROCESS FOR PREPARING THE SAME AND USE THEREOF” (GALDERMA RESEARCH & DEVELOPMENT, priority 2012, published 2015)
